Here are results for 16 compounds from PubChem BioAssay AID220 (DTP/NCI, 2004).

The subject of the assay is CD8F1 mice, subcutaneous mammary adenocarcinoma, T/C%. The assay is described as follows: NCI In Vivo Anticancer Drug Screen. Data for tumor model Mammary Adenocarcinoma CD8F1 (subcutaneous) in CD8F1. The following applies: higher = larger tumour. The essentials:
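Antitumor activity is assessed in transplantable-tumor mice by comparing the treated group with a vehicle-treated control group. Survival or tumor size serves as the measure, reported as T divided by C.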

[1] abbreviates: endpoint: median tumor weight change, dose: 125.0 mg/kg/injection, schedule: Q01DX001 (ip), vehicle: saline.
The mark [2] stands for this setting: endpoint: median tumor weight change, dose: 250.0 mg/kg/injection, schedule: Q01DX001 (ip), vehicle: saline.
[3] abbreviates: endpoint: median tumor weight (est.), dose: 25.0 mg/kg/injection, schedule: Q07DX005 (ip), vehicle: Klucel (hydroxypropylcellulose) (HPC).
[4] abbreviates: endpoint: median tumor weight (est.), dose: 50.0 mg/kg/injection, schedule: Q07DX005 (ip), vehicle: Klucel (hydroxypropylcellulose) (HPC).
The mark [5] stands for this setting: endpoint: median tumor weight (est.), dose: 100.0 mg/kg/injection, schedule: Q07DX005 (ip), vehicle: Klucel (hydroxypropylcellulose) (HPC).
[6] abbreviates: endpoint: median tumor weight (est.), dose: 200.0 mg/kg/injection, schedule: Q07DX005 (ip), vehicle: Klucel (hydroxypropylcellulose) (HPC).
[7] abbreviates: endpoint: median tumor weight (est.), dose: 6.25 mg/kg/injection, schedule: Q07DX005 (ip), vehicle: saline with Tween-80.
[8] abbreviates: endpoint: median tumor weight (est.), dose: 12.5 mg/kg/injection, schedule: Q07DX005 (ip), vehicle: saline with Tween-80.
The mark [9] stands for this setting: endpoint: median tumor weight (est.), dose: 50.0 mg/kg/injection, schedule: Q07DX005 (ip), vehicle: saline with Tween-80.
[10] abbreviates: endpoint: median tumor weight (est.), dose: 12.5 mg/kg/injection, schedule: Q07DX005 (ip), vehicle: Klucel (hydroxypropylcellulose) (HPC).
Setting [11] is: endpoint: median tumor weight (est.), dose: 25.0 mg/kg/injection, schedule: Q07DX005 (ip), vehicle: saline with Tween-80.
The mark [12] stands for this setting: endpoint: median tumor weight (est.), dose: 100.0 mg/kg/injection, schedule: Q07DX005 (ip), vehicle: saline with Tween-80.
[13] abbreviates: endpoint: median tumor weight (est.), dose: 200.0 mg/kg/injection, schedule: Q07DX005 (ip), vehicle: saline with Tween-80.
The mark [14] stands for this setting: endpoint: median tumor weight (est.), dose: 400.0 mg/kg/injection, schedule: Q07DX005 (ip), vehicle: saline with Tween-80.

Where “and” joins values, the source holds several entries; their conditions need not be identical. Equal entries are not always repeated. Results filed as inconclusive are left out.

As to `CCCCCC[C@@H](O)C/C=C\CCCCCCCC(=O)OCCO`, the T/C is, setting by setting: under setting [1], 96 % of control; under setting [2], 91 % of control; (endpoint: median tumor weight change, dose: 500.0 mg/kg/injection, schedule: Q01DX001 (ip), vehicle: saline) 98 % of control; (endpoint: median tumor weight change, dose: 1000.0 mg/kg/injection, schedule: Q01DX001 (ip), vehicle: saline) 103 % of control; (endpoint: median tumor weight change, dose: 2000.0 mg/kg/injection, schedule: Q01DX001 (ip), vehicle: saline) 95 % of control.
Turning to `C=C(C)C12CC(C)C34OC(CCCCCCCCCCC)(OC1C3C1OC1(CO)C(O)C1(O)C(=O)C(C)=CC14C)O2` (stereo unspecified), the T/C was 58 % of control (endpoint: median tumor weight (est.), dose: 100.0 micrograms/kg/injection, schedule: Q07DX005 (ip), vehicle: saline + alcohol); 71 % of control (endpoint: median tumor weight (est.), dose: 200.0 micrograms/kg/injection, schedule: Q07DX005 (ip), vehicle: saline + alcohol); 49 % of control (endpoint: median tumor weight (est.), dose: 400.0 micrograms/kg/injection, schedule: Q07DX005 (ip), vehicle: saline + alcohol).
In the case of `CN(C)N=Nc1cn[nH]c1C(N)=O`, the T/C under setting [3] was 97 % of control, the T/C under setting [4] is 56 % of control, the T/C under setting [5] was 73 % of control and the T/C under setting [6] is 57 % of control.
Regarding `CC1C(=O)c2cc3c(cc2CCN(C)Cc2c1ccc1c2OCO1)OCO3` (stereo unspecified), the T/C is, setting by setting: (endpoint: median tumor weight change, dose: 12.5 mg/kg/injection, schedule: Q01DX001 (ip), vehicle: saline with Tween-80) 65 % of control; (endpoint: median tumor weight change, dose: 25.0 mg/kg/injection, schedule: Q01DX001 (ip), vehicle: saline with Tween-80) 64 % of control.
`CCCCCCCC(=O)[O][Hg][CH2]C1COC([CH2][Hg][O]C(=O)CCCCCCC)CO1` (stereo unspecified): the T/C was 90 % of control (endpoint: median tumor weight (est.), dose: 3.0 mg/kg/injection, schedule: Q07DX005 (ip), vehicle: saline with Tween-80); 95 % of control (endpoint: median tumor weight (est.), dose: 6.0 mg/kg/injection, schedule: Q07DX005 (ip), vehicle: saline with Tween-80); 100 % of control under setting [7]; 80 % of control (endpoint: median tumor weight (est.), dose: 12.0 mg/kg/injection, schedule: Q07DX005 (ip), vehicle: saline with Tween-80); 50 % of control under setting [8]; 100 % of control under setting [9].
On to `CC(=O)OCC1OC(OC2=C(CC=C(C)C)C(=O)c3ccccc3C2=O)C(OC(C)=O)C(OC(C)=O)C1OC(C)=O` (stereo unspecified), for which the T/C reads like this: under setting [10], 75 % of control and 98 % of control; under setting [3], 69 % of control; under setting [5], 113 % of control; under setting [6], 107 % of control; (endpoint: median tumor weight (est.), dose: 400.0 mg/kg/injection, schedule: Q07DX005 (ip), vehicle: Klucel (hydroxypropylcellulose) (HPC)) 79 % of control.
Turning to `CCOC(=O)C(C)(C)Oc1ccc(Cl)cc1`, the T/C reads like this: under setting [8], 61 % of control; under setting [11], 113 % of control; under setting [9], 84 % of control; under setting [12], 72 % of control; under setting [13], 77 % of control; under setting [14], 64 % of control.
On to `CCS/C(SC)=C(/c1ccccc1)[P+](c1ccccc1)(c1ccccc1)c1ccccc1`, for which the T/C (endpoint: median tumor weight change, dose: 0.5 mg/kg/injection, schedule: Q01DX001 (ip), vehicle: Klucel (hydroxypropylcellulose) (HPC)) was 159 % of control; the T/C (endpoint: median tumor weight change, dose: 1.0 mg/kg/injection, schedule: Q01DX001 (ip), vehicle: Klucel (hydroxypropylcellulose) (HPC)) was 100 % of control; the T/C (endpoint: median tumor weight change, dose: 2.0 mg/kg/injection, schedule: Q01DX001 (ip), vehicle: Klucel (hydroxypropylcellulose) (HPC)) was 114 % of control; the T/C (endpoint: median tumor weight change, dose: 4.0 mg/kg/injection, schedule: Q01DX001 (ip), vehicle: Klucel (hydroxypropylcellulose) (HPC)) is 81 % of control; the T/C (endpoint: median tumor weight change, dose: 8.0 mg/kg/injection, schedule: Q01DX001 (ip), vehicle: Klucel (hydroxypropylcellulose) (HPC)) was 43 % of control.
In the case of `CCN(CC)CCNc1ccc(CO)c2sc3ccccc3c(=O)c12`, the T/C (endpoint: median tumor weight (est.), dose: 6.25 mg/kg/injection, schedule: Q07DX005 (ip), vehicle: water) was 62 % of control; the T/C (endpoint: median tumor weight (est.), dose: 12.5 mg/kg/injection, schedule: Q07DX005 (ip), vehicle: clinical formulation) is 120 % of control; the T/C (endpoint: median tumor weight (est.), dose: 12.5 mg/kg/injection, schedule: Q07DX005 (ip), vehicle: water) was 67 % of control; the T/C (endpoint: median tumor weight (est.), dose: 25.0 mg/kg/injection, schedule: Q07DX005 (ip), vehicle: clinical formulation) is 82 % of control; the T/C (endpoint: median tumor weight (est.), dose: 25.0 mg/kg/injection, schedule: Q07DX005 (ip), vehicle: water) was 51 % of control; the T/C (endpoint: median tumor weight (est.), dose: 50.0 mg/kg/injection, schedule: Q07DX005 (ip), vehicle: clinical formulation) is 53 % of control. The T/C (endpoint: median tumor weight (est.), dose: 50.0 mg/kg/injection, schedule: Q07DX005 (ip), vehicle: water) was 39 % of control; the T/C (endpoint: median tumor weight (est.), dose: 100.0 mg/kg/injection, schedule: Q07DX005 (ip), vehicle: clinical formulation) was 17 % of control; the T/C (endpoint: median tumor weight (est.), dose: 100.0 mg/kg/injection, schedule: Q07DX005 (ip), vehicle: water) is 3 % of control.
With `Nc1nc(N)c2cc(CNc3ccc(C(=O)NC(CC(=O)O)CC(=O)O)cc3)ccc2n1`, the T/C is, setting by setting: under setting [10], 86 % of control; under setting [3], 92 % of control; under setting [4], 81 % of control; under setting [5], 54 % of control.
As to `COC1=CC(=O)C(OC)=C(OC)C1=O`, the T/C is, setting by setting: under setting [7], 63 % of control; under setting [8], 106 % of control; under setting [11], 90 % of control; under setting [9], 96 % of control; under setting [12], 74 % of control.
On to `COC(=O)CC(N)C(=O)O` (stereo unspecified), for which the T/C by setting is: under setting [1], 60 % of control; under setting [2], 61 % of control.
Take `CCO/C=C1\SC(=S)N(c2ccccc2C)C1=O`: the T/C is, setting by setting: under setting [8], 106 % of control; under setting [12], 115 % of control; under setting [13], 95 % of control; under setting [14], 67 % of control.
For `CN(CCN(C)C(=O)CCOS(C)(=O)=O)C(=O)CCOS(C)(=O)=O`, the T/C is 67 % of control (endpoint: median tumor weight change, dose: 62.0 mg/kg/injection, schedule: Q01DX001 (ip), vehicle: saline); 43 % of control (endpoint: median tumor weight change, dose: 62.5 mg/kg/injection, schedule: Q01DX001 (ip), vehicle: saline with Tween-80); 39 % of control (endpoint: median tumor weight change, dose: 62.5 mg/kg/injection, schedule: Q01DX001 (ip), vehicle: suspension in saline); 15 % of control (endpoint: median tumor weight change, dose: 125.0 mg/kg/injection, schedule: Q01DX001 (ip), vehicle: saline with Tween-80); 3 % of control under setting [1]; 10 % of control (endpoint: median tumor weight change, dose: 125.0 mg/kg/injection, schedule: Q01DX001 (ip), vehicle: suspension in saline). The T/C by setting is: under setting [2], 51 % of control; (endpoint: median tumor weight change, dose: 500.0 mg/kg/injection, schedule: Q01DX001 (ip), vehicle: saline with Tween-80) -17 % of control.
On to `CC(=O)Nc1ccc(/C=N/NC(N)=S)cc1`, for which the T/C runs as follows: (endpoint: median tumor weight change, dose: 31.25 mg/kg/injection, schedule: Q01DX001 (ip), vehicle: Klucel (hydroxypropylcellulose) (HPC)) 96 % of control; (endpoint: median tumor weight change, dose: 62.5 mg/kg/injection, schedule: Q01DX001 (ip), vehicle: Klucel (hydroxypropylcellulose) (HPC)) 84 % of control; (endpoint: median tumor weight change, dose: 125.0 mg/kg/injection, schedule: Q01DX001 (ip), vehicle: Klucel (hydroxypropylcellulose) (HPC)) 103 % of control; (endpoint: median tumor weight change, dose: 250.0 mg/kg/injection, schedule: Q01DX001 (ip), vehicle: Klucel (hydroxypropylcellulose) (HPC)) 48 % of control; (endpoint: median tumor weight change, dose: 500.0 mg/kg/injection, schedule: Q01DX001 (ip), vehicle: Klucel (hydroxypropylcellulose) (HPC)) 99 % of control.
`CC1=CC2C(O)(CC(CO)=CC3C4C(C)(C)C4(OC(=O)c4ccccc4)C(OC(=O)c4ccccc4)C(C)C32O)C1=O` (stereo unspecified): the T/C is, setting by setting: (endpoint: median tumor weight change, dose: 0.63 mg/kg/injection, schedule: Q01DX001 (ip), vehicle: saline with Tween-80) 88 % of control; (endpoint: median tumor weight change, dose: 1.25 mg/kg/injection, schedule: Q01DX001 (ip), vehicle: saline with Tween-80) 58 % of control; (endpoint: median tumor weight change, dose: 5.0 mg/kg/injection, schedule: Q01DX001 (ip), vehicle: saline with Tween-80) 96 % of control.
